Tests used:
CC531 cells = test: Colorectal carcinoma model: CC531 cells implanted into the liver of Wag rats, tumor volume, metastasis and tolerability; assay type: in vivo; conditions: for Tumor Volume: % ± SD compared to untreated controls, CC531 liver tumor in Wag rats, treatment from 7th to 28th postoperative day; for tumor growth / primary tumor volume (in words): treatment day 7-28
Procedure: ombination of 1-(4-Chloroanilino)-4-(4-pyridylmethyl)phthalazine drochloride (ZK) and 3-pyridylmethyl-N-{4-[(2-amino-phenyl)-rbamoyl]benzyl}carbamate (MS) with Tamoxifen (TAM)
C cells CC531 were cultured in vitro (10th-15th passage) and implanted into e liver of adult (250 g) immuncompetent Wag rats (n/group=12). Between the venth and the 28th postoperative day the rats received either a placebo erapy, the conventional chemotherapy 5-fluoruracil (5FU, 10 mg/kg) or the llowing biomodulators alone or in combination: the VEGF receptor antagonist (4-Chloroanilino)-4-(4-pyridylmethyl)phthalazine hydrochloride (ZK) 0mg/kg), the histone deacetylase inhibitor 3-pyridylmethyl-N-{4-[(2-amino-enyl)carbamoyl]benzyl}carbamate (MS) dose and Tamoxifen (TAM) (TAM: g/kg KG i.p.). Apoptosis rate was assessed using a the TUNEL method on raformaldehyd fixed tumor material.

| SMILES | Tumor Volume (CC531 cells) | tumor growth / primary tumor volume (in words) (CC531 cells) | melting point |
| --- | --- | --- | --- |
| Nc1ccccc1NC(=O)c1ccc(CNC(=O)OCc2cccnc2)cc1 [3-pyridylmethyl-N-{4-[(2-amino-phenyl)-carbamoyl]benzyl}-carbamate] | 80 ± 23% | – | – |
| Clc1ccc(Nc2nnc(Cc3ccncc3)c3ccccc23)cc1.O=C(O)CCC(=O)O [K, (4-Chlorophenyl)[4-(4-pyridylmethyl)-phthalazin-1-yl]-ammonium hydrogen succinate] | 94 ± 20% | no significant reduction | – |
| Cc1ncsc1CCOC(=O)NCc1ccc(C(=O)Nc2ccccc2N)cc1 [Example 64, N-(2-aminophenyl)-4-[N-[2-(4-methylthiazol-5-yl)ethoxycarbonyl]aminomethyl]benzamide] | – | – | 130 to 133 °C |
| CC(C)c1ccc(Nc2nnc(Cc3ccncc3)c3ccccc23)cc1.Cl.Cl | – | – | > 250 °C |
| CC/C(=C(\c1ccccc1)c1ccc(OCCN(C)C)cc1)c1ccccc1 [Tamoxifen (TAM), (Z)-2-[p-(1,2-diphenyl-1-butenyl)phenoxy]-N,N-dimethylethylamine, reference compound] | 90 ± 10% | no significant reduction | – |
| Nc1ccccc1NC(=O)c1ccc(CNC(=O)OCc2cccnc2)cc1 [MS, N-(2-aminophenyl)-4-[N-(pyridin-3-yl)methoxycarbonylaminomethyl]benzamide] | – | no significant reduction | – |
| O=c1[nH]cc(F)c(=O)[nH]1 [5-Fluorouracil (5FU), 5-Fluorouracil, reference compound] | 85 ± 19% | did not reduce tumor growth | – |
| Nc1ccccc1NC(=O)c1ccc(-n2cc(COc3cccnc3)oc2=O)cc1 [Example 139, N-(2-aminophenyl)-4-[5-(pyridin-3-yl)oxymethyl-1,3-oxazolin-2-on-3-yl]benzamide] | – | – | 199 to 201 °C |
| Nc1ccccc1NC(=O)c1ccc(-n2cc(COc3ccc([N+](=O)[O-])cc3)oc2=O)cc1 [Example 137, N-(2-aminophenyl)-4-[5-(4-nitrophenoxy)methyl-1,3-oxazolin-2-on-3-yl]benzamide] | – | – | 162 to 164 °C |
| CC(=O)Nc1ccc(Nc2nnc(Cc3ccncc3)c3ccccc23)cc1 [Example A-11, 1-(4-Acetaminoanilino)-4-(4-pyridylmethyl)phthalazine] | – | – | > 270 °C |
| Cl.Nc1ccc2c(Cc3ccncc3)nnc(Nc3ccc(Cl)cc3)c2c1 | – | – | > 300 °C |
| COC(=O)c1ccc(C(=O)NCc2ccc(C(=O)Nc3ccccc3N)cc2)cc1 [Example 11, N-(2-aminophenyl)-4-[N-(4-methoxycarbonylbenzoyl)aminomethyl]benzamide] | – | – | 204 to 209 °C (dec.) |

Reference: US20050054647A1, “New pharmaceutical combination” (priority 2002, published 2005)
